According to patent US20090298915A1, “TOPICAL DRUG DELIVERY” (priority 2006, published 2009):

Assays:
[1] = Ex vivo skin penetration, Franz diffusion chamber, human skin; type: in vitro ADME; conditions: fluorescein-labelled compounds, 10^−3 M, up to 3 hours
Text: (§1) The penetration of the relevant compounds into mouse, pig and human skin was investigated using a Franz diffusion chamber system; this approach ensured a sealed system which prevented any leakage between the upper donor compartment and the lower receptor compartment. Circular full thickness skin samples (6 mm diameter) which had been cut with a punch biopsy blade were mounted into the diffusion chamber, with the stratum corneum facing upwards so that it was exposed to donor compartment, and with the receptor compartment filled with PBS. The compound under investigation was applied to the donor compartment so that it lay on the outer skin surface, and the chamber incubated at room temperature or at 37° C. for up to 3 hours. At the end of this incubation period, the remaining solution was removed from the upper compartment, and the skin washed three times with PBS. The skin was then bisected and half of it was snap frozen in liquid nitrogen for cryosectioning whereas the other half was fixed in 4% paraformaldehyde for 3 hours prior to paraffin blocking for cutting tissue sections. The skin sections were mounted on glass and visualised under fluorescent microscopy.
(§2) Penetration of αMSH into skin was examined using an ex-vivo mouse, pig and human skin model. […]

[2] = tested on: B16F10 cells; assay: Transport into B16F10 cells, fluorescence and confocal microscopy; type: cell-based, murine; conditions: TyrPNA-PPL-fluo at 3×10^−5 M and at 10^−4 M
Protocol: Experiments to investigate the transport of each compound into cells in culture were performed at 3 hours and 24 hours. Cells were seeded (at 1×10^5 cells per well for 3 hours treatment or 5×10^4 cells per well for 24 hours treatment) on 1% (w/v) poly-L-lysine coated glass coverslips in 12 well plates and incubated overnight at 5% CO2 and 37° C.; poly-L-lysine coating of glass coverslips was employed to prevent the fluo-labelled PPL compounds adhering to the glass and causing background fluorescence. Cells were then washed with PBS, and incubated at 5% CO2 and 37° C. with the compound in the medium for 3 hours or 24 hours. The medium was subsequently removed and the cells washed twice with PBS, prior to fixation with 4% paraformaldehyde for 7 minutes, and then fixation was stopped with 50 mM ammonium chloride for 10 minutes. Cells were subsequently washed twice with PBS, and coverslips were mounted (with the cells facing downwards) onto a glass slide with vectashield, and the edges sealed with clear nail varnish to prevent drying. Fluorescence was detected by fluorescence microscopy and/or confocal microscopy. […]
Fluorescently-tagged compounds were used as noted above and intracellular fluorescence recorded as a measure of penetration.

[3] = Ex vivo skin penetration, Franz diffusion chamber, mouse skin; type: in vitro ADME; conditions: fluorescein-labelled compounds, 10^−3 M, up to 3 hours
Text: as §1, §2

[4] = Ex vivo skin penetration, Franz diffusion chamber, pig skin; type: in vitro ADME; conditions: fluorescein-labelled compounds, 10^−3 M, up to 3 hours
Text: as §1, §2

[5] = tested on: S91 Cloudman murine melanoma cells; assay: Pigmentation assay (melanin synthesis); type: cell-based; conditions: 5 days culture, 10^−8 M and 10^−6 M
Protocol: (§3) S91 Cloudman murine melanoma cells were cultured for 5 days in the presence or absence of αMSH compounds. All experiments were carried out in triplicate wells on three separate occasions. Following culture, cells were washed twice with PBS and then dissociated with cell dissociation solution (Sigma, UK). An aliquot of cells were counted using a haemocytometer, and the remaining cells pelleted by centrifugation prior to lysis of the pellet with 200 μl of 1M NaOH. Melanin concentrations were determined against a standard synthetic melanin dose range using a spectrophometric plate reader (emission 450-492 nm).

[6] = tested on: B16F10 murine melanoma cells; assay: Pigmentation assay in alphaMSH-stimulated B16F10 cells; type: cell-based; conditions: B16F10, 48 hours, αMSH 10^−10 M, compound 10^−5 M
Protocol: as §3
B16F10 murine melanoma cells were cultured for 48 hours in the presence or absence of αMSH (10^−10 M) with or without TyrPNA or TyrASO and separately with or without TyrPNA-PPL or TyrASO-PPL. Pigmentation was assessed as described above.

| Substance | penetration into human skin ex vivo [1] | penetration into B16F10 cells (intracellular fluorescence) [2] | penetration into mouse skin ex vivo [3] | penetration into pig skin ex vivo [4] | melanin synthesis by melanoma cells, potency compared with αMSH [5] | darkening of the cell pellet induced by αMSH [6] |
| --- | --- | --- | --- | --- | --- | --- |
| TyrPNA-fluo: fluorescein-labelled TyrPNA, FIG. 8 (GAACATTTTCTCCTT; all peptide nucleic acid (PNA); further chemistry not fully specified) | did not penetrate into skin | did not penetrate into B16F10 cells | – | – | – | – |
| Fluo-Ahx-SYSMEHFRWGKPV-NH2 [Fluo-MSH] | did not penetrate into skin | – | did not penetrate into skin (except on a single occasion in mouse skin) | did not penetrate into skin | stimulated melanin synthesis by melanoma cells with similar potency to αMSH | – |
| TyrPNA: 15 mer antisense peptide nucleic acid (GAA CAT TTT CTC CTT; SEQ. ID no. 1) targeting murine tyrosinase, modified as in FIG. 7 (antisense GAACATTTTCTCCTT; all peptide nucleic acid (PNA); further chemistry not fully specified) [15 mer antisense peptide nucleic acid (GAA CAT TTT CTC CTT; ID no] | – | – | – | – | – | did not prevent the increased production of melanin |
